Assay results reported in patent US12264142B2, “Heterocyclic compounds” (FLORATEK PHARMA SA, priority 2019, dated 2025).
Entries after “also recorded” stand apart in the source; their conditions may differ.

Assays:
[1] = test system: N2 wild type strain of worms; test: C. elegans life span (survival) assay, manual scoring (SND301); type: in vivo; conditions: for Death events / Maximum life span / Median lifespan: SND301 and Urolithin A 50 μM; for % Complete: deaths attributed to aging from total worm population
Method: The survival assay was conducted in the presence of 50 μM SND301 with measurements of live, dead, and censored worms at time points every 2-3 days from the start of adulthood.
Thioflavin T was used in the assay as a positive control [Gamir-Morralla A et al, 2019, “Effects of Thioflavin T and GSK-3 Inhibition on Lifespan and Motility in a Caenorhabditis elegans Model of Tauopathy”, J Alzheimers Dis Rep., 3(1): 47-57]. Vehicle 25% and 1% DMSO were used as controls and represent the vehicles in which compounds and bacteria or bacteria alone respectively were resuspended. The final DMSO concentration in the agar plates was 0.5% and 0.02% respectively.
5 mM DMSO stock solutions for each compound were prepared in high-grade DMSO. Stocks were protected from light and stored in glass vials at 21° C. in a temperature-controlled room (to avoid freeze/thaw of DMSO). A fresh stock was prepared at the start of each experiment and stored for <1 week.
The lifespan assay was designed and performed according to published and validated methods with modifications for chemical treatment [Amrit F R G et al, 2014, “The C. elegans lifespan assay toolkit”, METHODS 68, 465-475; Leukanic, et. Al, “Manual Lifespan Assay Standard Operating Procedure”, Caenorhabditis Intervention Testing Program, https://figshare.com/articles/7_CITP_SOP_Manual_Lifespan_Assay/9738197/1]. Plates were seeded with compound dissolved in 25% DMSO and bacteria. The DMSO diffused through the agar to reach a final concentration of 0.5%. Synchronized day 1 adult worms were transferred to seeded plates containing compound and allowed to lay eggs for 2 hours (Day 0, “hatchoff”). The young adults were then removed, and the eggs were incubated at 20° C. until they had reached the young adult stage (day 3). 200 young adult worms per treatment were transferred to 8 fresh seeded 35 mm dishes with compound and 50 μM 5-Fluorodeoxyuridine to suppress progeny. […] Worms that were missing, stuck to the dish, burrowed, injured, or exploded were scored as censored and removed from the plate. To maintain chemical exposure at the experimental concentrations, worms were transferred every other scoring day to new seeded plates with compound.

C. elegans = test: Life span assay on Automated Lifespan Machine (SND302, SND303); type: in vivo; conditions: for Maximum life span: average lifespan of the ten longest-lived worms; for Age in days at 25% mortality / Age in days at 50% mortality / Age in days at 75% mortality / Age in days at 90% mortality / Age in days at 100% mortality: SND302, SND303 25 μM, Uro A, Resveratrol 50 μM
Method: An additional life span assay using an adapted standard protocol employed and published by the C. elegans Intervention Testing Program, or CITP was employed to assess the activity of SND302 and SND303. A positive and a negative control were included in the assay. In a preliminary experiment the optimal conditions for the life span analysis was determined and the stress level induced by the compounds as well as toxicity were measured.
For the life span assay over 300 worms per conditions were used and the study was conducted by InVivoBiosystems (USA) using an Automated Lifespan Machine (ALM) with proprietary modifications to improve temperature stability and image acquisition.
To prevent chemical modification or metabolism of the test article by the food bacteria, worms were fed on a lawn of UV-killed bacteria (UV-i bacteria). An overnight culture of E. coli strain WP-2 was pelleted, washed, filtered, and irradiated. A suspension of UV-i bacteria was spotted on NGM agar containing Streptomycin to inhibit growth of contaminating bacteria. The quantity and distribution of food bacteria was calibrated to ensure adequate access to food for the duration of assay while maintaining visibility of the worms.
Test article was delivered to worms by a method compatible with and previously validated on the Automated Lifespan Machine and used by the CIT [Lucanic, et. al. Impact of genetic background and experimental reproducibility on identifying chemical compounds with robust longevity effects. Nature Communications 8 (2017)]. A 200× stock solution was freshly prepared in DMSO immediately before application. 40 μl of DMSO stock (0.5% plate volume) was applied to the plate to coat the food bacteria and then chased immediately with 160 μl water to uniformly distribute a fine precipitate across the surface of the plate. This functioned to provide reservoirs of compound in food, agar, and agar surface.
The ALM used by InVivoBiosystems is based on the Caenorhabditis elegans lifespan machine published by Stroustrup, N. et al. The Caenorhabditis elegans Lifespan Machine. N at Methods 10, 665-670 (2013), with proprietary modifications to improve temperature stability and image acquisition. The scanner unit consists of a modified EPSON V850 and images are processed and analyzed using the ALM software 7. The machine time-of-death calls are trained and validated using the “storyboarding” feature of the ALM software.
The lifespan assay was designed and performed according to published and validated methods, Amrit, F. R. G., Ratnappan, R., Keith, S. A. & Ghazi, A. The C. elegans lifespan assay toolkit. Methods 68, 465-475 (2014); Lucanic, et. al. Manual Lifespan Assay Standard Operating Procedure. Caenorhabditis Intervention Testing Program https://figshare.com/articles/7_CITP_SOP_Manual_Lifespan_Assay/9738197/1. using a modified version of the Automated Lifespan Machine. Worms were age synchronized by bleaching and eggs were plated directly onto NGM agar seeded with UV-I bacteria (Day 1, hatch). On Day 3, when the worms had reached the late L4 stage, they were transferred to dishes containing 100 μM 5-Fluorodeoxyuridine (FUdR) to suppress progeny. On day 5, the worms were washed off the dishes and 30-50 worms were plated on each scanner dish. Plates were immobilized inverted on the bed of an Automated Lifespan Machine which scanned two images per hour of the plates continuously for the next 40 days.
Time of death calls exported from the ALM software were analyzed and plotted using the Lifelines software package developed by Davidson-Pilon, (2019). lifelines: survival analysis in Python. Journal of Open Source Software, 4(40), 1317.

[2] = test system: C. elegans gene expression; test: Whole transcriptome analysis (RNA-Seq) of treated worms; type: in vivo; conditions: for Significant differentially-expressed genes: 25 μM
Method: To determine the mode of action for SND302 and SND303 the gene transcription in young and aged adults was analyzed by RNA-Seq (whole transcription analysis). For each condition, >300 worms were treated in parallel with the lifespan assay and maintained under identical conditions.
Differential gene expression was performed with EdgeR using […] likelihood ratio tests based on fitting linear models. The likelihood ratios were used to determine the p-values which were subsequently corrected for using the BH false discovery rate (fdr) method. Eventually, differential expressed genes were defined as genes with fdr-corrected p-value of 0.05 or lower, as well as a change in expression of at least 2-fold in a given between-group comparison. Compounds SND302 and SND303 were compared against Urolithin and Vehicle control. […] In general the transcriptomic data corroborates a differential effect for SND303 when compared to SND302 (FIGS. 1-4).
Worms for RNA-Seq were split from the same synchronized pool of worms for the lifespan with each of the three replicates being maintained and treated in parallel. More than 150 worms per replicate were harvested, cleaned by filtration, and frozen at −80° in Trizol. To extract RNA, samples were thawed, vigorously vortexed, and processed using the Direct-zol RNA Miniprep Kit (Zymo Research). All samples exceeded our threshold for RNA quantity and quality. RNA samples were submitted to Novogene Co. Ltd and subjected to more stringent QC, being tested on a Qubit for concentration and run on an agarose gel and on the Agilent […] assess RNA quality and integrity. […] The total RNA was then enriched for poly-mRNA using oligo(dT) paramagnetic beads. DNA libraries were then constructed from this input mRNA using the NEBNext Ultra™ II RNA Library Prep Kit.
These libraries were then further tested by the Qubit for concentration and the Agilent 2100 for library size distribution and quality. In order to properly pool the libraries and load them onto sequencing lanes to ensure the correct number of reads per sample, an even more precise quantification of the library was done via qPCR, and the samples were loaded onto the NovaSeq 6000 platform for a paired-end sequencing run of 150 bp for each end (PE150). The loading concentrations were designed to obtain at least 6.0 Gb (which is the number of billion bases of raw data, determined by the number of reads multiplied by the length of each read). A mean of 7.4 Gb (median 7.3 Gb) raw sequencing data was obtained across all samples, with a minimum of 6.3 Gb and a maximum of 8.5 Gb raw data. Sequencing run data quality control was performed both by Novogene and by an in-house analysis. The raw data set was analyzed for parameters such as the distribution of base quality along the length of the sequencing read, the distribution of error rate along the length of the sequencing read. Reads containing adapter sequences, with N>10% (where N means “base cannot be determined”) and with a low quality (Qscore<=5) for 50% or more of its total bases were removed.

human hepatocytes [3] = test: Cell viability (ATP content) in primary human hepatocytes; type: cell-based; conditions: 1 to 100 μM, 24 h exposure, pooled human hepatocytes
Method: (§1) Cytotoxicity potency of test compound SND301 was assayed in human hepatocytes from pooled donor lots at three concentrations; 1, 10 and 100 μM. Cytotoxicity was assayed from medium samples after 24 h exposure period with test compounds by measuring membrane integrity (LDH leakage), coupled to fluorescent signal. In parallel, cell viability was assayed by the means of ATP content, indicating the metabolically competent cell activity. ATP content was measured based on luciferase catalysed reaction generating stable bioluminescent signal. Cytotoxic positive control compound was used: chlorpromazine at 5-250 μM.
(§2) Cryopreserved human hepatocytes from pooled donor lot (Bioreclamation IVT) were seeded on collagen I coated 96-well plates (Corning Biocoat) at 0.55×10^5 cells per well in 120 μl InVitroGRO™ CP medium (BioIVT), including additives Torpedo Antibiotic mix (BioIVT). […] Cytotoxicity and cell viability were evaluated based on LDH release in medium and ATP content in the cells after 24 hours exposure phase.
The remaining medium and cells were used for the assessment of metabolically competent cells (ATP) according to the manufacturer's (Promega) protocol. […] The samples were transferred to white opaque-walled 96-well plate (Corning #3610) after which measured with plate reader for luminescence.
(§3) Both LDH and ATP assays were measured 1-2 hours post treatment with assay components.

human hepatocytes [4] = test: Cytotoxicity (LDH leakage, membrane integrity) in primary human hepatocytes; type: cell-based; conditions: 1 to 100 μM, 24 h exposure, pooled human hepatocytes
Method: as §1, §2
After 24 h exposure half of the culture medium (50 μl) was transferred to black opaque-walled 96-well plate (Corning #3603) for LDH measurements and allowed to settle to room temperature. […] Thereafter the samples were analysed with plate reader for fluorescence (LDH; 560ex, 590em).
as §3

[5] = test system: N2 wild type strain of worms; test: Toxicity and food avoidance test in worms (SND301); type: in vivo, C. elegans; conditions: concentrations up to 50 μM, from embryo to first day of adulthood
Method: In a first stage of this study, normal worms were treated with various concentrations of SND301 to test toxicity and food avoidance.
To test food avoidance worms were placed on agar plates containing a grid of alternating control and compound-containing food spots. The number of worms on each food spot was recorded every two hours.

[6] = Table 1A, at a certain point during the study, N2

Row | SMILES | Death events [1, 6] | % Complete [1, 6] [%] | Death events ([1]; Table 1B, end of the study) | Maximum life span ([1]; end of the study) [days] | Median lifespan ([1]; end of the study) [days] | Age in days at 25% mortality (C. elegans) [days] | Age in days at 50% mortality (C. elegans) [days] | Age in days at 75% mortality (C. elegans) [days] | Age in days at 90% mortality (C. elegans) [days] | Age in days at 100% mortality (C. elegans) [days] | other results
1 | Cc1ccc2c(c1)sc(-c1ccc(N(C)C)cc1)[n+]2C.[Cl-] [Thioflavin, Thioflavin T] | 38 | 23.2 | 38 | 33 | 21 | – | – | – | – | – | –
2 | Oc1ccc(C=Cc2cc(O)cc(O)c2)cc1 [Resveratrol, reference compound] | – | – | – | – | – | 24.6 | 28.2 | 30.5 | 32.7 | 37.8 | Median lifespan (C. elegans; 50 μM): 28.2 days; Maximum life span (C. elegans; 50 μM): 36.6 days
3 | CCNC(=O)Oc1ccc2c(c1)oc(=O)c1cc(OC(=O)NCC)ccc12 [SND302] | – | – | – | – | – | 24.2 | 28.2 | 31.0 | 33.0 | 37.9 | Median lifespan (C. elegans; 25 μM): 28.2 days; Mean lifespan (C. elegans; 25 μM, area under the survival curve): 27.0 days; Maximum life span (C. elegans; 25 μM): 36.1 days; Effect on lifespan (C. elegans; in words, compared to control): did not show a significant difference from the control; Significant differentially-expressed genes ([2]; Day 3, compared to the controls (Vehicle and Urolithin A)): 7-8 genes; Expression of gene C50F7.5 ([2]; Day 10): significantly upregulated; Significant differentially-expressed genes ([2]; Day 10, compared to the controls (Vehicle and Urolithin A)): 12-14 genes; Toxicity and stress response induction (transcriptome) ([2]; early exposure period): some signs of toxicity and stress response induction
4 | CNC(=O)Oc1ccc2c(c1)oc(=O)c1cc(OC(=O)NC)ccc12 [SND301] | 59 | 31.6 | 179 | 31 | 24 | – | – | – | – | – | ATP content (human hepatocytes [3]): 72-103%; Cytotoxicity (LDH) leakage (human hepatocytes [4]): 7-10%; Tolerability of exposure [5]: well tolerated; Effect on lifespan ([1]; 50 μM, in words): significantly increased life span; also recorded: significantly increased median lifespan; Surviving fraction ([1]; until day 24, compared with all groups): highest surviving fraction by a considerable margin
